Measurements from patent US20090076067A1, “PHARMACEUTICAL COMPOSITION COMPRISING AZARHODACYANINE COMPOUND AS ACTIVE INGREDIENT” (priority 2005, published 2009).
≈ marks a conversion by molar mass, not a printed value.

What was measured:
[1] = tested on: Trypanosoma cruzi (Tulahuen C2C4 strain); assay: American trypanosoma protozoa proliferation inhibition screening test; type: cell-based; details: Tulahuen C2C4 strain in rat L6 cells, 96 hours, CPRG/Nonidet
Experimental: In this experiment, amastigote and trypomastigote of Trypanosoma cruzi (Tulahuen C2C4 strain) infected to rat L6 cells were used. The medium used in the experiment was prepared as follows: to RPMI 1640 medium containing L6 cells, L-glutamine (200 mM) and fetal bovine serum was added to achieve concentration of 1% and 10%, respectively. The culture was conducted under CO2 concentration 5% and temperature 37° C.
Either the compound of the invention or a positive control (benznidazole) was dissolved into DMSO to prepare test solution having predefined concentration. To each well in a 96-well culture plate, medium containing 5×10^3 protozoa was added and precultured for 48 hours. After replacing the medium, either the test solution containing compound of the invention in predefined concentration or DMSO without compound was added. The test solution was duplicated.
The plate was cultured in an incubator for 96 hours, and the proliferation inhibition activity was examined. The activity was determined as follows. To each well, 50 μL CPRG/Nonidet was added, then left for 2 to 6 hours. Then the culture plate was mounted on an absorption microplate reader to determine absorption at 540 nm. The trypanosoma infection rate of the sample containing the test compound and that of the control sample was calculated.
(§1) Using the protozoa infection rate thus obtained, the proliferation inhibition rate was calculated according to the following equation to determine 50% proliferation inhibition concentration (EC50).
(§2) Proliferation inhibition rate(%)={1−(b−a)/(c−a)}×100
(§3) a: initial infection rate b: infection rate of the test compound solution c: infection rate of the control

[2] = tested on: Plasmodium Falciparum k1 strain; assay: Chloroquine-resistant tropical malaria protozoa proliferation inhibition screening test; type: cell-based; details: chloroquine-resistant K1 strain; 3H-hypoxanthine uptake
Experimental: In this experiment, Plasmodium Falciparum k1 strain protozoa were used. The medium used in the experiment was filter-sterilized RPMI-1640 medium. To the medium human serum was added to achieve 5% concentration. The protozoa was cultured under condition of O2 concentration 3%, CO2 concentration 4%, N2 concentration 93%, and temperature 37° C.
The cultured malaria infected red blood cells were collected by centrifugation, diluted with non-infected red blood cells, to achieve initial infection rate 0.15%. The hematocrit was 2.5%.
To each well in a 96-well culture plate, 200 μL malaria infected culture was added, and either test solution containing test compound at predefined concentration or DMSO having no test compound was added. Each test solution was prepared in duplicate. After 48 hours culture under 37° C., hypoxanthine labeled with radioactive tritium (^3H) of 0.5 μCi was added to each well. After culturing under same condition for 24 hours, the product was collected on a glass fiber filter and washed. The intensity of radiation was measured by Beta plate liquid scintillation counter (Wallac Inc.), to determine malaria protozoa infection rate in test compound samples and control samples.
Using the malaria protozoa infection rate, the proliferation inhibition rate was calculated according to the following equation to determine 50% proliferation inhibition concentration (EC50).
as §2
(§4) a: initial infection rate b: infection rate of test compound solution c: infection rate of the control

[3] = tested on: Rat-derived L6 cells (rat skeletal myoblast cell); assay: Rat L6 cell proliferation inhibition test; type: cell-based; details: Alamar Blue
Experimental: Rat-derived L6 cells (rat skeletal myoblast cell) were used for this test. […] The sample was cultured under CO2 concentration 5% and temperature 37° C. Either the composition of the invention or control was dissolved into DMSO, to prepare test solutions having predefined concentration.
The samples were precultured until logarithmic growth phase was reached. Then the culture was transferred to each well in a 96-well culture plate, and either test solution containing test compound at predefined concentration or DSMO without compound was added. The test solution was duplicated.
The plate was cultured in an incubator for 72 hours, to examine proliferation inhibition activity. The activity was examined as follows. Alamar Blue water solution 10 μL was added to each well, and culture was continued for 2 hours. Next, the culture plate was mounted on a fluorescence microplate reader (Spectramax Gemeni XS; Molecular Devices Corporation, U.S.), and irradiated with excitation wavelength 536 nm to determine fluorescence at 588 nm. The survival rate of L6 cells in the test solution sample and control sample was calculated.
Proliferation inhibition rate(%)={(C−A)/(B−A)}×100
A: Initial cell count B: Cell count in control after 3 days C: Cell count in test solution after 3 days

[4] = tested on: Plasmodium berghei NK 65 strain; assay: animal or person; type: in vivo; details: for Survival days (mean survival days, treatment group minus control group) / Recovery Rate (suppression): 4 days; for Recovery Rate (suppression): P. berghei infected ICR mice
Excerpt: For a test to evaluate therapeutic effect of the compound, 4-day suppressive test which is commonly used for in vivo test to evaluate activity of anti-malaria compound was used. In this experiment, rodent malaria protozoa (Plasmodium berghei NK 65 strain) were used. The infected blood was collected from 5-weeks age (SPF) ICR strain male mouse which were infected intraperitoneally and successively cultured. From the caudal vein of the infected mouse, blood was collected to calculate infection rate. After confirming that infection rate was adequately elevated (10% to 20% infection), the malaria infected blood was collected from the heart of the mouse. The infection rate and count of the red blood cells (cells/mL) were calculated. The infected red blood cell was diluted with PBS buffer to achieve […] protozoa per 0.2 mL dose. The infected cells were injected to the caudal vein of uninfected mouse (ICR strain, male, 5-weeks age) to cause infection. Five mice were made into one group, and the test compound was administered in predefined concentration. From 2 hours after infection, the compound was administered every 24 hours for straight 4 days.
The compound of the invention to be used in this test was dissolved in saline (Otsuka Pharmaceutical Co., Ltd.) to obtain test solution of predefined concentration. When the compound was not dissolved in saline, it was dissolved in SSV (saline containing 0.5% sodium=carboxymethyl cellulose, 0.5% benzyl alcohol, 0.4% Tween 80) to prepare test solution. For the control group (non-treatment group), only saline (Otsuka) was administered. Positive controls S-1 to S-5 were dissolved in saline (Otsuka) or SSV in predetermined concentration to prepare test solution. When the compound was not dissolved in saline, it was dissolved in SSV. After measuring weight of each mouse, the dose for each mouse was calculated to achieve 5.0 to 40 mg concentration for weight1 kg.
Five mice were made into one group, and the test compound was administered intraperitoneally at predefined concentration. From 2 hours after infection, the compound was administered every 24 hours for straight 4 days. Subsequent to the 24 hours after last treatment, blood was collected from the tail of the mouse to prepare thin layer smear in order to count malaria protozoa infection in the treatment group and the control group under microscope. The mice showing maximum value and minimum value were excluded from the average calculation (average was calculated for three mice), to determine malaria protozoa infection rate (Parasitemia).
Using malaria protozoa infection rate thus calculated, recovery rate obtained from the test compound (suppression) was determined.
Recovery rate: suppression(%)=(b−a)/b×100 a: Protozoa infection rate in the treatment group b: Protozoa infection rate in the control group Mean survival days: MSD(day)=c−d c: Average days from the initial treatment (date of malaria infection) to the date of death for the treatment group (5 mice) d: Average days from the date of malaria infection to the date of death for the non-treatment (control) group (5 mice) […]
Tables 5 to 7 illustrate the recovery rate (%) and survival days (day) of malaria infected mice treated with intraperitoneal injection of the test compound and the control compound at predefined concentration. The meaning of symbols in the table is as follows.

[5] = tested on: Trypanosoma brucei rhodensiense (STIB 900 strain); assay: African trypanosoma protozoa proliferation inhibition screening test; type: cell-based; details: STIB 900 bloodstream form, 72 hours, Alamar blue
Experimental: In this experiment, bloodstream form trypomastigote of Trypanosoma brucei rhodensiense (STIB 900 strain) was used. The medium used in the experiment was prepared as follows: to filter-sterilized MEM medium, 25 mM N-2-hydroxyethylpiperazine-2-ethane sulfonate (HEPES), 1 g/L glucose, 1% MEM nonessential amino acid, 0.2 mM 2-mercaptoethanol, 2 mM pyruvic calcium salt, 0.1 mM hypoxanthine, and 15% heat-treated horse serum were added. The protozoa was cultured under atmosphere of CO2 concentration 5% and temperature 37° C.
Either the compound of the invention or a positive control (melarsoprol) was dissolved into dimethylsulfoxide (DMSO) to prepare test solution having predefined concentration. To each well in a 96-well culture plate, medium containing 8×10^3 protozoa, and either test solution containing the test compound at predefined concentration or DMSO without compound was added. Then medium was added to achieve 100 μL. The test solution was duplicated.
The culture plate was cultured in an incubator for 72 hours, and the proliferation inhibition activity was examined. The activity was determined as follows. To each well, 10 μL Alamar blue water solution was added, then the plate was again cultured for 2 hours. Then the culture plate was mounted on a fluorescence microplate reader (Spectramax Gemeni XS; Molecular Devices Corporation, U.S.), and irradiated with 536 nm excitation wavelength to determine fluorescence at 588 nm. The trypanosoma infection rate of the sample containing the test composition and that of the control sample was calculated.
as §1, §2, §3

[6] = tested on: Leishmania donovani (MHOM/ET/67/L82 strain); assay: Leishmania protozoa proliferation inhibition screening test; type: cell-based; details: amastigote, 72 hours, Alamar blue
Experimental: In this experiment, Leishmania donovani (MHOM/ET/67/L82 strain) was used. The protozoa were successively cultured in Syrian Golden hamsters to obtain amastigote. The medium used in the experiment was SM medium having heat-treated fetal bovine serum 10% added, and pH prepared to 5.4. The culture was conducted under CO2 concentration 5% and temperature 37° C.
Either the compound of the invention or a positive control (miltefosine) was dissolved into DMSO to prepare test solution having predefined concentration. To each well of a 96-well culture plate, medium containing predetermined number of protozoa was added and the culture was pre-treated. The concentration of amastigote was determined by CASY cell analyze system (Scharfe GMBH Co., Germany). Subsequently, either test solution containing compound of the invention in predefined concentration or DMSO without compound was added. The test solution was duplicated.
The plate was cultured in an incubator for 72 hours, and the proliferation inhibition activity was examined. The activity was determined as follows. To each well, 10 μL Alamar blue aqueous solution was added, then cultured again for 2 hours. Then the culture plate was mounted on a fluorescence microplate reader (Spectramax Gemeni XS; Molecular Devices Corporation, U.S), and irradiated 536 nm excitation wavelength to determine […] at 588 nm. The leishmania infection rate of the sample containing the test compound and that of the control sample was calculated.
as §1, §2, §4

[7] = dose 25 mg/kg/d intraperitoneally
[8] = Plasmodium berghei, ip, 96 h, read-out: Recovery Rate (suppression)

| SMILES | EC50 P. falciparum K1 [2] [µg/mL] | EC50 cytotoxicity L6 ([3]; Table 1, 72 hours) [µg/mL] | Survival days (mean survival days, treatment group minus control group) [4, 7] [days] | Recovery Rate (suppression) [4, 7] [%] | other results |
| --- | --- | --- | --- | --- | --- |
| O=C(Cn1ccnc1[N+](=O)[O-])NCc1ccccc1 [Benznidazole, reference compound] |  |  |  |  | EC50 ([1]; Trypanosoma cruzi, read-out: EC50 Trypanosoma cruzi): 0.87 µg/mL (≈ 3.34 µM) |
| CCN1C(=O)/C(=c2/s/c(=C3/C=CC=CN3C)c(=O)n2CC)S/C1=N\c1scc[n+]1C [Compound B-19] | 0.0166 | 27.92 |  |  |  |
| CCN1C(=O)/C(=c2/s/c(=c3/nc4c(o3)=CC=CN4C)c(=O)n2CC)S/C1=N\c1scc[n+]1C [Compound B-20] | 0.017 | 69.34 | 6.3 | 56.1 |  |
| CCn1c(=O)/c(=c2\nc3c(o2)=CC=CN3C)s/c1=C1\S/C(=N\c2scc[n+]2C)N(Cc2ccccc2)C1=O [Compound B-22] | 0.005 | >90 | 9.0 | 72.4 | EC50 Trypanosoma brucei rhod. [5]: 0.068 µg/mL |
| CCN1C(=O)/C(=c2/s/c(=C3/C=CC=CN3C)c(=O)n2CC)S/C1=N\c1sc2cc(F)ccc2[n+]1C [Compound B-32] | 0.0162 | 15.88 | 4.8 | 79.5 | EC50 Trypanosoma brucei rhod. [5]: 0.1585 µg/mL; EC50 Leishmania donovani [6]: 0.2195 µg/mL; EC50 cytotoxicity L6 ([3]; Table 2, 72 hours): 15.88 µg/mL; EC50 cytotoxicity L6 ([3]; Table 4, 72 hours): 15.88 µg/mL |
| C=CCN1C(=O)/C(=c2/s/c(=C3/SCCN3C)c(=O)n2CC)S/C1=N\c1sc2cc(Cl)ccc2[n+]1C [Compound B-39] |  |  | 4.5 | 77.7 | EC50 Trypanosoma brucei rhod. [5]: 0.141 µg/mL; EC50 Leishmania donovani [6]: 0.049 µg/mL; EC50 Trypanosoma cruzi [1]: 0.141 µg/mL; EC50 cytotoxicity L6 ([3]; Table 2, 72 hours): 3.72 µg/mL; EC50 cytotoxicity L6 ([3]; Table 3, 72 hours): 3.72 µg/mL; EC50 cytotoxicity L6 ([3]; Table 4, 72 hours): 3.72 µg/mL |
| C=CCN1C(=O)/C(=c2/s/c(=C3/C=CC=CN3C)c(=O)n2CC)S/C1=N\c1scc[n+]1C [Compound B-40] |  | 27.38 |  |  |  |
| CCN1C(=O)/C(=C/C=C2\Sc3ccccc3N2C)S/C1=N\c1sc2cc(Cl)ccc2[n+]1C [Compound C-2] | 0.02495 | 11.33 |  |  | Recovery Rate (suppression) ([4]; dose 5.0 mg/kg/d intraperitoneally): 32.1% |
| C=CCn1c(=O)/c(=C2\C=CC=CN2C)s/c1=c1\s/c(=C\c2cccc[n+]2C)n(CC)c1=O [Compound S-6, reference compound] |  |  |  |  | inhibition in vivo at 50 mg/kg/day [4, 8]: 25.9%; Survival days (mean survival days, treatment group minus control group) ([4]; dose 50 mg/kg/d intraperitoneally): 0 days |
| CCCCCCCCCCCCCCCCOP(=O)([O-])OCC[N+](C)(C)C [Miltefosine, reference compound] |  |  |  |  | EC50 ([6]; Leishmania donovani, read-out: EC50 Leishmania donovani): 0.11 µg/mL (≈ 0.27 µM) |
| C=C[C@H]1C[N@@]2CC[C@H]1C[C@H]2[C@H](O)c1ccnc2ccc(OC)cc12 [Quinine, reference compound] |  |  |  |  | inhibition in vivo at 10 mg/kg/day [4, 8]: 18.6%; Survival days (mean survival days, treatment group minus control group) ([4]; dose 10 mg/kg/d intraperitoneally): 1.0 days |
